Reference: PubChem BioAssay AID1963982 (Molecular Pharmacology Branch, DTP, NCI, 2024)

Test system: 313798-341-R-J2-PDC spheroids, viability
Experiment: Anticancer human tumor 313798-341-R-J2-PDC patient-derived cervical squamous cell carcinoma cell line growth inhibition [PI3K]
Conditions: spheroids with HUVEC and MSC; for IC50: curve of first compound; for viability, T/C: stronger effect = lower value
Procedure, shortened: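 Agents were dosed from a top concentration near clinical Cmax (otherwise 10 microM) in half-log decrements, alone or combined with PI3K inhibitors. The spheroids contain tumor cells plus endothelial (HUVEC) and MSC stroma; viability is measured.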

[1] = second compound 0.0316 µM, first compound 0.0316 µM
[2] = second compound 0.0316 µM, first compound 0.1 µM
[3] = second compound 0.0316 µM, first compound 0.316 µM
[4] = second compound 0.0316 µM, first compound 1 µM
[5] = second compound 0.0316 µM, first compound 3.16 µM
[6] = second compound 0.0316 µM, first compound 10 µM
[7] = second compound 0.1 µM, first compound 0.0316 µM
[8] = second compound 0.1 µM, first compound 0.1 µM
[9] = second compound 0.1 µM, first compound 0.316 µM
[10] = second compound 0.1 µM, first compound 1 µM
[11] = second compound 0.1 µM, first compound 3.16 µM
[12] = second compound 0.1 µM, first compound 10 µM
[13] = second compound 0.316 µM, first compound 0.0316 µM
[14] = second compound 0.316 µM, first compound 0.1 µM
[15] = second compound 0.316 µM, first compound 0.316 µM
[16] = second compound 0.316 µM, first compound 1 µM
[17] = second compound 0.316 µM, first compound 3.16 µM
[18] = second compound 0.316 µM, first compound 10 µM
[19] = second compound 1 µM, first compound 0.0316 µM
[20] = second compound 1 µM, first compound 0.1 µM
[21] = second compound 1 µM, first compound 0.316 µM
[22] = second compound 1 µM, first compound 1 µM
[23] = second compound 1 µM, first compound 3.16 µM
[24] = second compound 1 µM, first compound 10 µM
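Further: spheroids exposed to compounds for seven days.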
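Wherever viability, T/C is given: 100% = DMSO vehicle control viability.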

## Cn1nccc1Nc1nccc(-c2ccn(C(CO)c3ccc(Cl)c(F)c3)c(=O)c2)n1 (centres undefined) + Cc1nc(NC(=O)N2CCCC2C(N)=O)sc1-c1ccnc(C(C)(C)C(F)(F)F)c1
Second compound 0.0316 µM
  IC50: > 10 µM
Second compound 0.1 µM
  IC50: > 10 µM
Second compound 0.316 µM
  IC50: > 10 µM
Second compound 1 µM
  IC50: > 10 µM
Second compound 3.16 µM
  IC50: 5.98 µM
Second compound 10 µM
  IC50: < 0.0316 µM
[1]
  viability, T/C: 102%
[2]
  viability, T/C: 90%
[3]
  viability, T/C: 92.9%
[4]
  viability, T/C: 102%
[5]
  viability, T/C: 102%
[6]
  viability, T/C: 109%
[7]
  viability, T/C: 95.7%
[8]
  viability, T/C: 103%
[9]
  viability, T/C: 99%
[10]
  viability, T/C: 103%
[11]
  viability, T/C: 113%
[12]
  viability, T/C: 106%
[13]
  viability, T/C: 97.4%
[14]
  viability, T/C: 102%
[15]
  viability, T/C: 103%
[16]
  viability, T/C: 98.8%
[17]
  viability, T/C: 109%
[18]
  viability, T/C: 103%
[19]
  viability, T/C: 88.8%
[20]
  viability, T/C: 81.3%
[21]
  viability, T/C: 91.9%
[22]
  viability, T/C: 90.4%
[23]
  viability, T/C: 89.4%
[24]
  viability, T/C: 71.3%
Second compound 3.16 µM, first compound 0.0316 µM
  viability, T/C: 57.9%
Second compound 3.16 µM, first compound 0.1 µM
  viability, T/C: 60.4%
Second compound 3.16 µM, first compound 0.316 µM
  viability, T/C: 55.7%
Second compound 3.16 µM, first compound 1 µM
  viability, T/C: 56.5%
Second compound 3.16 µM, first compound 3.16 µM
  viability, T/C: 52.9%
Second compound 3.16 µM, first compound 10 µM
  viability, T/C: 45.4%
Second compound 10 µM, first compound 0.0316 µM
  viability, T/C: 35.4%
Second compound 10 µM, first compound 0.1 µM
  viability, T/C: 22.1%
Second compound 10 µM, first compound 0.316 µM
  viability, T/C: 31.6%
Second compound 10 µM, first compound 1 µM
  viability, T/C: 26.8%
Second compound 10 µM, first compound 3.16 µM
  viability, T/C: 29.2%
Second compound 10 µM, first compound 10 µM
  viability, T/C: 24.1%

## CCCS(=O)(=O)Nc1ccc(F)c(C(=O)c2c[nH]c3ncc(-c4ccc(Cl)cc4)cc23)c1F + COc1c(OCCCN2CCOCC2)ccc2c3n(c(=NC(=O)c4cnc(N)nc4)nc12)CCN3
Second compound 0.00316 µM
  IC50: 6.1 µM
Second compound 0.01 µM
  IC50: 5.99 µM
Second compound 0.0316 µM
  IC50: 5.16 µM
Second compound 0.1 µM
  IC50: 0.11 µM
Second compound 0.316 µM
  IC50: < 0.0316 µM
Second compound 1 µM
  IC50: < 0.0316 µM
Second compound 0.00316 µM, first compound 0.0316 µM
  viability, T/C: 109%
Second compound 0.00316 µM, first compound 0.1 µM
  viability, T/C: 98.6%
Second compound 0.00316 µM, first compound 0.316 µM
  viability, T/C: 99.6%
Second compound 0.00316 µM, first compound 1 µM
  viability, T/C: 92.3%
Second compound 0.00316 µM, first compound 3.16 µM
  viability, T/C: 95.5%
Second compound 0.00316 µM, first compound 10 µM
  viability, T/C: 15.7%
Second compound 0.01 µM, first compound 0.0316 µM
  viability, T/C: 89.1%
Second compound 0.01 µM, first compound 0.1 µM
  viability, T/C: 96.2%
Second compound 0.01 µM, first compound 0.316 µM
  viability, T/C: 103%
Second compound 0.01 µM, first compound 1 µM
  viability, T/C: 98.6%
Second compound 0.01 µM, first compound 3.16 µM
  viability, T/C: 97.1%
Second compound 0.01 µM, first compound 10 µM
  viability, T/C: 12.5%
[1]
  viability, T/C: 68.7%
[2]
  viability, T/C: 94.1%
[3]
  viability, T/C: 86.5%
[4]
  viability, T/C: 83.8%
[5]
  viability, T/C: 78.1%
[6]
  viability, T/C: 12%
[7]
  viability, T/C: 47.9%
[8]
  viability, T/C: 54.2%
[9]
  viability, T/C: 48.4%
[10]
  viability, T/C: 41.4%
[11]
  viability, T/C: 33.9%
[12]
  viability, T/C: 15.7%
[13]
  viability, T/C: 16.7%
[14]
  viability, T/C: 18.7%
[15]
  viability, T/C: 19.1%
[16]
  viability, T/C: 20.5%
[17]
  viability, T/C: 22.4%
[18]
  viability, T/C: 12.7%
[19]
  viability, T/C: 13.2%
[20]
  viability, T/C: 12.4%
[21]
  viability, T/C: 14.6%
[22]
  viability, T/C: 14.3%
[23]
  viability, T/C: 19.8%
[24]
  viability, T/C: 9.24%
